Values joined by “and” are separate entries in the source; they are usually repeats but may differ in a detail not shown here. Identical values can stand only once. Toxic doses and inconclusive results are not listed. Cut-off read from the data, not from the text of the source: active = T/C of 150% or more; inactive = T/C below 125%.
Test system: L1210 leukemia ip in BDF1 mice, survival T/C
Assay: NCI In Vivo Anticancer Drug Screen. Data for tumor model L1210 Leukemia (intraperitoneal) in B6D2F1 (BDF1) mice
Conditions: endpoint: mean survival time, higher = longer survival
In short: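 Ratio derived from survival: compound-dosed mice over vehicle-dosed mice, all bearing a transplantable tumor.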

[1] = dose: 3.12 mg/kg/injection, schedule: Q01DX009 (ip), vehicle: saline
[2] = dose: 6.25 mg/kg/injection, schedule: Q01DX009 (ip), vehicle: saline
[3] = dose: 100.0 mg/kg/injection, schedule: Q01DX001 (ip), vehicle: carboxymethylcellulose (CMC)
[4] = dose: 200.0 mg/kg/injection, schedule: Q01DX001 (ip), vehicle: carboxymethylcellulose (CMC)
[5] = dose: 400.0 mg/kg/injection, schedule: Q01DX001 (ip), vehicle: carboxymethylcellulose (CMC)
[6] = dose: 100.0 mg/kg/injection, schedule: Q01DX009 (ip), vehicle: Klucel (hydroxypropylcellulose) (HPC)
[7] = dose: 100.0 mg/kg/injection, schedule: Q04DX003 (ip), vehicle: Klucel (hydroxypropylcellulose) (HPC)
[8] = dose: 200.0 mg/kg/injection, schedule: Q01DX009 (ip), vehicle: Klucel (hydroxypropylcellulose) (HPC)
[9] = dose: 200.0 mg/kg/injection, schedule: Q04DX003 (ip), vehicle: Klucel (hydroxypropylcellulose) (HPC)
[10] = dose: 400.0 mg/kg/injection, schedule: Q04DX003 (ip), vehicle: Klucel (hydroxypropylcellulose) (HPC)
[11] = dose: 100.0 mg/kg/injection, schedule: Q01DX001 (ip), vehicle: Klucel (hydroxypropylcellulose) (HPC)
[12] = dose: 200.0 mg/kg/injection, schedule: Q01DX001 (ip), vehicle: Klucel (hydroxypropylcellulose) (HPC)
[13] = dose: 400.0 mg/kg/injection, schedule: Q01DX001 (ip), vehicle: Klucel (hydroxypropylcellulose) (HPC)
[14] = dose: 50.0 mg/kg/injection, schedule: Q01DX009 (ip), vehicle: Klucel (hydroxypropylcellulose) (HPC)

Measured: T/C

COC1OC(C)C(O)C(O)[CH]1[Hg][O]C(C)=O (centres undefined)
inactive: [1] 113 % of control | dose: 5.0 mg/kg/injection, schedule: Q01DX001 (ip), vehicle: saline 110 % of control | [2] 89 % of control | dose: 6.25 mg/kg/injection, schedule: Q04DX003 (ip), vehicle: saline 102 % of control | dose: 10.0 mg/kg/injection, schedule: Q01DX001 (ip), vehicle: saline 103 % of control | dose: 12.5 mg/kg/injection, schedule: Q04DX003 (ip), vehicle: saline 106 % of control

Nc1nc(C(=O)O)cc(=O)[nH]1
inactive: [3] 103 % of control | [4] 113 % of control | [5] 96 % of control

O=C(NCCCl)Sc1ccc(Cl)cc1
inactive: dose: 20.0 mg/kg/injection, schedule: Q04DX003 (ip), vehicle: Klucel (hydroxypropylcellulose) (HPC) 92 % of control | dose: 40.0 mg/kg/injection, schedule: Q04DX003 (ip), vehicle: Klucel (hydroxypropylcellulose) (HPC) 90 % of control | dose: 80.0 mg/kg/injection, schedule: Q04DX003 (ip), vehicle: Klucel (hydroxypropylcellulose) (HPC) 93 % of control

N=C(N)/C(N)=N\C1=NCCN1
inactive: [6] 101 % of control | [7] 95 % of control | dose: 178.0 mg/kg/injection, schedule: Q04DX003 (ip), vehicle: Klucel (hydroxypropylcellulose) (HPC) 97 % of control | [8] 101 % of control | [9] 93 % of control | dose: 266.0 mg/kg/injection, schedule: Q04DX003 (ip), vehicle: Klucel (hydroxypropylcellulose) (HPC) 92 % of control | [10] 90 % of control and 92 % of control | dose: 600.0 mg/kg/injection, schedule: Q04DX003 (ip), vehicle: Klucel (hydroxypropylcellulose) (HPC) 93 % of control

NC1(c2ccccc2)CCCCC1
inactive: [1] 110 % of control | [2] 104 % of control | dose: 12.5 mg/kg/injection, schedule: Q01DX009 (ip), vehicle: saline 105 % of control | dose: 25.0 mg/kg/injection, schedule: Q01DX009 (ip), vehicle: saline 103 % of control | dose: 25.0 mg/kg/injection, schedule: Q04DX003 (ip), vehicle: saline 98 % of control | dose: 50.0 mg/kg/injection, schedule: Q01DX009 (ip), vehicle: saline 105 % of control | dose: 50.0 mg/kg/injection, schedule: Q04DX003 (ip), vehicle: saline 101 % of control

COC(=O)C12c3ccccc3C(c3ccccc31)c1c(N=O)ccc(NO)c12
inactive: dose: 25.0 mg/kg/injection, schedule: Q04DX003 (ip), vehicle: Klucel (hydroxypropylcellulose) (HPC) 100 % of control | dose: 50.0 mg/kg/injection, schedule: Q04DX003 (ip), vehicle: Klucel (hydroxypropylcellulose) (HPC) 97 % of control | [11] 99 % of control | [7] 94 % of control | [12] 90 % of control | [9] 102 % of control | [13] 89 % of control | [10] 105 % of control

COc1ccc(CNCCNCc2ccc(OC)cc2)cc1
inactive: [14] 96 % of control | [6] 100 % of control | dose: 100.0 mg/kg/injection, schedule: Q01DX009 (ip), vehicle: water 98 % of control | [7] 103 % of control | dose: 100.0 mg/kg/injection, schedule: Q04DX003 (ip), vehicle: water 96 % of control | [8] 96 % of control | dose: 200.0 mg/kg/injection, schedule: Q01DX009 (ip), vehicle: water 92 % of control | [9] 94 % of control | dose: 200.0 mg/kg/injection, schedule: Q04DX003 (ip), vehicle: water 100 % of control | dose: 400.0 mg/kg/injection, schedule: Q01DX009 (ip), vehicle: water 89 % of control | dose: 400.0 mg/kg/injection, schedule: Q04DX003 (ip), vehicle: water 100 % of control

COc1ccc(S(=O)(=O)NC(=O)NCC=C(C)C)cc1
inactive: [14] 98 % of control | [6] 98 % of control | [7] 93 % of control | [8] 96 % of control | [9] 103 % of control | [10] 94 % of control

CC(C)CNC(=S)Nc1ccccc1
inactive: dose: 75.0 mg/kg/injection, schedule: Q01DX001 (ip), vehicle: other 98 % of control | dose: 150.0 mg/kg/injection, schedule: Q01DX001 (ip), vehicle: other 98 % of control | dose: 300.0 mg/kg/injection, schedule: Q01DX001 (ip), vehicle: other 102 % of control

OC(OC/C(I)=C(/I)COC(O)C(Cl)(Cl)Cl)C(Cl)(Cl)Cl (centres undefined)
inactive: dose: 100.0 mg/kg/injection, schedule: Q01DX009 (ip), vehicle: other 103 % of control | dose: 100.0 mg/kg/injection, schedule: Q04DX003 (ip), vehicle: other 103 % of control | dose: 200.0 mg/kg/injection, schedule: Q01DX009 (ip), vehicle: other 92 % of control | dose: 200.0 mg/kg/injection, schedule: Q04DX003 (ip), vehicle: other 100 % of control | dose: 400.0 mg/kg/injection, schedule: Q04DX003 (ip), vehicle: other 97 % of control

COc1ccc(OC)c2c1C=CCC2
inactive: [3] 96 % of control | [4] 91 % of control | [5] 104 % of control

CCOc1ccccc1NC(=O)COc1ccc(Cl)cc1
inactive: [6] 98 % of control | [7] 90 % of control | [8] 103 % of control | [9] 101 % of control | dose: 400.0 mg/kg/injection, schedule: Q01DX009 (ip), vehicle: Klucel (hydroxypropylcellulose) (HPC) 97 % of control | [10] 108 % of control

Nc1nc(N)c(N=Nc2ccc(S(=O)(=O)Nc3nccs3)cc2)cc1N=Nc1ccccc1
inactive: [3] 94 % of control | [4] 92 % of control | [5] 105 % of control

CN(C)Cc1cc(O)c(CN(C)C)cc1O
inactive: dose: 25.0 mg/kg/injection, schedule: Q01DX009 (ip), vehicle: saline with Tween-80 110 % of control | dose: 25.0 mg/kg/injection, schedule: Q04DX003 (ip), vehicle: saline with Tween-80 88 % of control | dose: 50.0 mg/kg/injection, schedule: Q01DX009 (ip), vehicle: saline with Tween-80 103 % of control | dose: 50.0 mg/kg/injection, schedule: Q04DX003 (ip), vehicle: saline with Tween-80 93 % of control | dose: 100.0 mg/kg/injection, schedule: Q04DX003 (ip), vehicle: saline with Tween-80 96 % of control

C[C@]12CC[C@H]3[C@@H](CC[C@]4(O)C[C@@H](O)CC[C@]34C=O)[C@@]1(O)CC[C@@H]2C1=CC(=O)OC1
inactive: dose: 12.5 mg/kg/injection, schedule: Q01DX009 (ip), vehicle: Klucel (hydroxypropylcellulose) (HPC) 102 % of control | dose: 25.0 mg/kg/injection, schedule: Q01DX009 (ip), vehicle: Klucel (hydroxypropylcellulose) (HPC) 104 % of control | dose: 50.0 mg/kg/injection, schedule: Q01DX001 (ip), vehicle: carboxymethylcellulose (CMC) 98 % of control | [14] 102 % of control | dose: 50.0 mg/kg/injection, schedule: Q01DX009 (ip), vehicle: carboxymethylcellulose (CMC) 103 % of control | dose: 75.0 mg/kg/injection, schedule: Q04DX003 (ip), vehicle: Klucel (hydroxypropylcellulose) (HPC) 102 % of control | [3] 96 % of control | [6] 109 % of control | dose: 100.0 mg/kg/injection, schedule: Q01DX009 (ip), vehicle: carboxymethylcellulose (CMC) 108 % of control | dose: 150.0 mg/kg/injection, schedule: Q04DX003 (ip), vehicle: Klucel (hydroxypropylcellulose) (HPC) 98 % of control | [4] 93 % of control | [8] 112 % of control | dose: 300.0 mg/kg/injection, schedule: Q04DX003 (ip), vehicle: Klucel (hydroxypropylcellulose) (HPC) 101 % of control

O=C1NCN(c2ccccc2)C12CCN(CCCS(=O)(=O)c1ccccc1)CC2
inactive: [11] 93 % of control | [12] 94 % of control | [13] 101 % of control

COc1cccc(CNc2ccc(C)c(Cl)c2)c1OC
inactive: dose: 100.0 mg/kg/injection, schedule: Q01DX009 (ip), vehicle: gum acacia 99 % of control | dose: 100.0 mg/kg/injection, schedule: Q04DX003 (ip), vehicle: gum acacia 104 % of control | dose: 200.0 mg/kg/injection, schedule: Q01DX009 (ip), vehicle: gum acacia 108 % of control | dose: 200.0 mg/kg/injection, schedule: Q04DX003 (ip), vehicle: gum acacia 97 % of control | dose: 400.0 mg/kg/injection, schedule: Q01DX009 (ip), vehicle: gum acacia 87 % of control | dose: 400.0 mg/kg/injection, schedule: Q04DX003 (ip), vehicle: gum acacia 90 % of control

From PubChem BioAssay AID248 (DTP/NCI, 2004)
